Data taken from patent US20150105433A1, “TREATING VIRAL INFECTIONS HAVING VIRAL RNAs TRANSLATED BY A NON-IRES MEDIATED MECHANISM” (THE UAB RESEARCH FOUNDATION, priority 2012, published 2015).

Key:
HCV (JFH1, genotype 2a) = test: HCV amplification in RPS25 knockdown Huh7.13 cells, quantitative western analysis for NS5A; assay type: cell-based, hepatitis C virus; details: Huh7.13 cells infected with HCV at low MOI, 72 hours after infection, versus non-targeting control siRNA
Protocol: (§1) The day before transfection, 5×10^4 HeLa cells were seeded into 24-well plates. Once the cells reached 90% confluency, transfection of dual luciferase reporters was done using Lipofectamine 2000 (Invitrogen) according to the manufacturer's recommendations using 0.4 μg DNA per well. Cells were harvested for luciferase analysis after 24 hours. Double stranded RPS25 siRNAs, 5′-GGACUUAUCAAACUGGUUUtt-3′ (SEQ ID NO:3) and 5′-AAACCAGUUUGAUAAGUCCtt-3′ (SEQ ID NO:4) (Ambion, siRNA ID #142220), were used to knock down RPS25 in Huh7 cells. The Dicector™ DS (IDT; Coralville, Iowa) scrambled negative control duplex was used as a negative control. siRNA complexes were prepared in opti-MEM (Invitrogen) with 5 μl siPORT NeoFX transfection agent to a final siRNA concentration of 0.375 μM according to the manufacturer's specifications. siRNA complexes were plated and overlaid with 2×10^5 Huh7.13 cells in antibiotic-free media. The transfection media was replaced with complete media after 24 hours.
The HCV infection was carried out by inoculating Huh7.13 cells with 1 ml of culture medium from the HCV producer cell line Huh7 JFH1 HCV (genotype 2a). […]
Cells were lysed in E1 lysis buffer with 0.1% SDS. […] Signals were detected using flororchrome-conjugated secondary antibody for quantitative western blotting using the Odyssey scanner and software (LI-COR; Lincoln, Nebr.).

RPS25 mRNA = test: RPS25 siRNA knockdown, northern analysis of RPS25 mRNA level; assay type: cell-based, human; details: Huh7.13 cells, transient siRNA transfection, 72 hours, RPS25 mRNA normalized to β-actin mRNA, relative to control
Protocol: as §1
Total RNA was harvested with TRIzol (Invitrogen) according to the manufacturer's protocol from shRNA lentiviral transduced cells. […]

With “siRNA that targets RPS25: Double stranded RPS25 siRNAs 5′-GGACUUAUCAAACUGGUUUtt-3′ (SEQ ID NO:3) and 5′-AAACCAGUUUGAUAAGUCCtt-3′ (SEQ ID NO:4), Ambion (chain 1 GGACUUAUCAAACUGGUUUTT; chain 2 AAACCAGUUUGAUAAGUCCTT; chemistry not given here)” the “HCV NS5A protein expression (HCV amplification)” value (HCV (JFH1, genotype 2a)) was “not detected” and the “RPS25 knockdown effectiveness (RPS25 mRNA level)” value (RPS25 mRNA) was “over 95%”.
